From patent US11260132B2, “Engineered liposomes as cancer-targeted therapeutics” (Children's Medical Center Corporation, priority 2017, dated 2022)

Test system: MDA-MB-436 cells
Assay: CEL-Dox cytotoxicity, Dojindo cell viability assay (Example 1)
Format: cell-based, human
Conditions: 6 h treatment, grown 48 h, CEL-Dox at 1.5:1
Description: The cytotoxicity of CEL-Dox on TNBC cells were evaluated using a cell viability assay. 5×10^3 cells (MDA-MB-231 and MDA-MB-436) were seeded in each well of a 96 well plate and incubated for 24 h. Cells were treated with (1) PBS, (2) Free Dox, (3) non-specific IgG-conjugated, Dox-encapsulating liposomes (IgG-Dox-LPs), (4) ICAM-1 antibody-conjugated, Dox-encapsulating liposomes (ICAM-1-Dox-LP), (5) EGFR antibody-conjugated, Dox-encapsulating liposomes (EGFR-Dox-LP), and (6) Dox-encapsulating CELs at optimal ICAM-1/EGFR antibody ratios (4.2/1 for MDA-MB-231 cells, and 1.5/1 for MDA-MB-436 cells) at the final liposome concentration of 1 μM lipids per 10^6 cells for 6 hours. Cells were rinsed three times with PBS and grown for 48 hours. Cell viability was determined by a Dojindo cell counting kit using the protocol from the manufacturer (Rockville, Md.).

For `COc1cccc2c1C(=O)c1c(O)c3c(c(O)c1C2=O)C[C@@](O)(C(=O)CO)C[C@@H]3O[C@H]1C[C@H](N)[C@H](O)[C@H](C)O1` [free Dox, doxorubicin], the “half maximal inhibitory concentration (IC50)” value was 0.0355 µg/mL.
